According to US20230085307A1, “PYRIDAZINONE COMPOUND AND HERBICIDE” (NISSAN CHEMICAL CORPORATION, priority 2019, published 2023):

Experiments:
late watergrass [1] = assay: Test Example 1: herbicidal activity, application before weed generation under submerged conditions (Table 16, symbol A); type: in vivo, late watergrass (Echinochloa oryzicola); conditions: amount of applied herbicide 320 g/ha
In short: (§1)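 Submerged Wagner pots (alluvial soil, 4 cm water) sown with weed seeds and planted with 2.5-leaf rice seedlings; emulsifiable concentrate diluted in water applied to water surface on sowing day. Held in greenhouse at 25-30 °C; injury scored 0-5 by herbicidal rate after three weeks.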

Japanese bulrush [2] = assay: Test Example 1: herbicidal activity, application before weed generation under submerged conditions (Table 16, symbol B); type: in vivo, Japanese bulrush (Schoenoplectus juncoides); conditions: amount of applied herbicide 320 g/ha
In short: as §1

oval-leafed pondweed [3] = assay: Test Example 1: herbicidal activity, application before weed generation under submerged conditions (Table 16, symbol C); type: in vivo, oval-leafed pondweed (Monochoria vaginalis); conditions: amount of applied herbicide 320 g/ha
In short: as §1

late watergrass [4] = assay: Test Example 2: herbicidal activity, application during weed generation under submerged conditions (Table 17, symbol A); type: in vivo, late watergrass (Echinochloa oryzicola); conditions: AAH 320 g/ha; application during weed generation, submerged conditions
In short: (§2)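 Alluvial soil in Wagner pots was flooded to 4 cm depth and sown with the three weeds together; pots were kept in a greenhouse at 25° C. to 30° C. At the one to two leaf stage, an emulsion formulation diluted in water to a set rate went onto the water surface; scored three weeks later.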

Japanese bulrush [5] = assay: Test Example 2: herbicidal activity, application during weed generation under submerged conditions (Table 17, symbol B); type: in vivo, Japanese bulrush (Schoenoplectus juncoides); conditions: AAH 320 g/ha; application during weed generation, submerged conditions
In short: as §2

oval-leafed pondweed [6] = assay: Test Example 2: herbicidal activity, application during weed generation under submerged conditions (Table 17, symbol C); type: in vivo, oval-leafed pondweed (Monochoria vaginalis); conditions: AAH 320 g/ha; application during weed generation, submerged conditions
In short: as §2

barnyard grass [7] = assay: Test Example 3: herbicidal effect by foliage application, Wagner pot (Table 18, symbol H); type: in vivo, barnyard grass (Echinochloa crus-galli); conditions: for herbicidal effect on H: barnyard grass: amount of applied herbicide 320 g/ha
In short: (§3)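 Plants were sown in alluvial soil held under 0.1–0.5 cm standing water and grown 14 days in a greenhouse at 25–30 °C. An emulsifiable formulation, water-diluted to the set dose, was then sprayed onto the foliage, and effects were scored three weeks later using previously defined criteria.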

Chinese sprangletop = assay: Test Example 3: herbicidal effect by foliage application, Wagner pot (Table 18, symbol D); type: in vivo, chinese sprangletop (Leptochloa chinensis); conditions: for herbicidal effect on D: Chinese sprangletop: amount of applied herbicide 320 g/ha
In short: as §3

rice flat sedge = assay: Test Example 3: herbicidal effect by foliage application, Wagner pot (Table 18, symbol E); type: in vivo, rice flat sedge (Cyperus iria); conditions: for herbicidal effect on E: rice flat sedge: amount of applied herbicide 320 g/ha
In short: as §3

southern crabgrass [8] = assay: Test Example 4: herbicidal effect by soil treatment (Table 19, symbol F); type: in vivo, southern crabgrass (Digitaria ciliaris); conditions: amount of applied herbicide 320 g/ha
In short: (§4)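 Step 1: sow seeds in sterilized diluvial soil, cover ~1.5 cm. Step 2: spray diluted emulsion onto soil surface at predetermined rate. Step 3: greenhouse, 25–30° C, three weeks. Step 4: grade effect on each plant by earlier criteria.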

green foxtail [9] = assay: Test Example 4: herbicidal effect by soil treatment (Table 19, symbol G); type: in vivo, green foxtail (Setaria viridis); conditions: amount of applied herbicide 320 g/ha
In short: as §4

barnyard grass [10] = assay: Test Example 4: herbicidal effect by soil treatment (Table 19, symbol H); type: in vivo, barnyard grass (Echinochloa crus-galli); conditions: amount of applied herbicide 320 g/ha
In short: as §4

velvetleaf [11] = assay: Test Example 4: herbicidal effect by soil treatment (Table 19, symbol M); type: in vivo, velvetleaf (Abutilon theophrasti); conditions: amount of applied herbicide 320 g/ha
In short: as §4

redroot pigweed [12] = assay: Test Example 4: herbicidal effect by soil treatment (Table 19, symbol N); type: in vivo, redroot pigweed (Amaranthus retroflexus); conditions: amount of applied herbicide 320 g/ha
In short: as §4

lambsquarters [13] = assay: Test Example 4: herbicidal effect by soil treatment (Table 19, symbol O); type: in vivo, lambsquarters (Chenopodium album); conditions: amount of applied herbicide 320 g/ha
In short: as §4

southern crabgrass [14] = assay: Test Example 5: herbicidal effect by foliage application, plastic box (Table 20, symbol F); type: in vivo, southern crabgrass (Digitaria ciliaris); conditions: foliage application, 320 g/ha, three weeks after application
In short: (§5)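 Foliar spray test: emulsion formulation diluted in water to a set application rate, sprayed onto 14-day-old plants raised in diluvial soil at 25° C to 30° C under glass. Both herbicidal effect and crop effect rated visually three weeks later.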

green foxtail [15] = assay: Test Example 5: herbicidal effect by foliage application, plastic box (Table 20, symbol G); type: in vivo, green foxtail (Setaria viridis); conditions: foliage application, 320 g/ha, three weeks after application
In short: as §5

barnyard grass [16] = assay: Test Example 5: herbicidal effect by foliage application, plastic box (Table 20, symbol H); type: in vivo, barnyard grass (Echinochloa crus-galli); conditions: foliage application, 320 g/ha, three weeks after application
In short: as §5

velvetleaf [17] = assay: Test Example 5: herbicidal effect by foliage application, plastic box (Table 20, symbol M); type: in vivo, velvetleaf (Abutilon theophrasti); conditions: foliage application, 320 g/ha, three weeks after application
In short: as §5

redroot pigweed [18] = assay: Test Example 5: herbicidal effect by foliage application, plastic box (Table 20, symbol N); type: in vivo, redroot pigweed (Amaranthus retroflexus); conditions: foliage application, 320 g/ha, three weeks after application
In short: as §5

lambsquarters [19] = assay: Test Example 5: herbicidal effect by foliage application, plastic box (Table 20, symbol O); type: in vivo, lambsquarters (Chenopodium album); conditions: foliage application, 320 g/ha, three weeks after application
In short: as §5

wild oat = assay: Test Example 5: herbicidal effect by foliage application, plastic box (Table 20, symbol I); type: in vivo, wild oat (Avena fatua); conditions: foliage application, 320 g/ha, three weeks after application
In short: as §5

blackgrass = assay: Test Example 5: herbicidal effect by foliage application, plastic box (Table 20, symbol J); type: in vivo, blackgrass (Alopecurus myosuroides); conditions: foliage application, 320 g/ha, three weeks after application
In short: as §5

Italian ryegrass = assay: Test Example 5: herbicidal effect by foliage application, plastic box (Table 20, symbol K); type: in vivo, Italian ryegrass (Lolium multiflorum); conditions: foliage application, 320 g/ha, three weeks after application
In short: as §5

windgrass = assay: Test Example 5: herbicidal effect by foliage application, plastic box (Table 20, symbol L); type: in vivo, windgrass (Apera spica-venti); conditions: foliage application, 320 g/ha, three weeks after application
In short: as §5

persian speedwell = assay: Test Example 5: herbicidal effect by foliage application, plastic box (Table 20, symbol R); type: in vivo, Persian speedwell (Veronica persica); conditions: foliage application, 320 g/ha, three weeks after application
In short: as §5

COCCOc1ccc(-c2sc3ccc(F)cc3c2-c2c(O)c(Cl)nn(C)c2=O)cc1 [2-440]
Herbicidal effect, A: late watergrass (late watergrass [1]): 3 (Herbicidal rate of 40% or more and less than 70%)
Herbicidal effect, B: Japanese bulrush (Japanese bulrush [2]): 4 (Herbicidal rate of 70% or more and less than 90%)
Herbicidal effect, C: oval-leafed pondweed (oval-leafed pondweed [3]): 3 (Herbicidal rate of 40% or more and less than 70%)
herbicidal effect rating, A: late watergrass (late watergrass [4]): 3 (Herbicidal rate of 40% or more and less than 70%)
herbicidal effect rating, B: Japanese bulrush (Japanese bulrush [5]): 3 (Herbicidal rate of 40% or more and less than 70%)
herbicidal effect rating, C: oval-leafed pondweed (oval-leafed pondweed [6]): 3 (Herbicidal rate of 40% or more and less than 70%)
herbicidal effect on H: barnyard grass (barnyard grass [7]): 5 (Herbicidal rate of 90% or more (almost completely withered))
herbicidal effect on D: Chinese sprangletop (Chinese sprangletop): 0 (Herbicidal rate of 5% or less (almost no effect))
herbicidal effect on E: rice flat sedge (rice flat sedge): 0 (Herbicidal rate of 5% or less (almost no effect))
herbicidal effect, F: southern crabgrass (southern crabgrass [8]): 3 (Herbicidal rate of 40% or more and less than 70%)
herbicidal effect, G: green foxtail (green foxtail [9]): 5 (Herbicidal rate of 90% or more (almost completely withered))
herbicidal effect, H: barnyard grass (barnyard grass [10]): 3 (Herbicidal rate of 40% or more and less than 70%)
herbicidal effect, M: velvetleaf (velvetleaf [11]): 4 (Herbicidal rate of 70% or more and less than 90%)
herbicidal effect, N: redroot pigweed (redroot pigweed [12]): 5 (Herbicidal rate of 90% or more (almost completely withered))
herbicidal effect, O: lambsquarters (lambsquarters [13]): 5 (Herbicidal rate of 90% or more (almost completely withered))
F: southern crabgrass, herbicidal effect grade (southern crabgrass [14]): 5 (Herbicidal rate of 90% or more (almost completely withered))
G: green foxtail, herbicidal effect grade (green foxtail [15]): 5 (Herbicidal rate of 90% or more (almost completely withered))
H: barnyard grass, herbicidal effect grade (barnyard grass [16]): 5 (Herbicidal rate of 90% or more (almost completely withered))
M: velvetleaf, herbicidal effect grade (velvetleaf [17]): 5 (Herbicidal rate of 90% or more (almost completely withered))
N: redroot pigweed, herbicidal effect grade (redroot pigweed [18]): 5 (Herbicidal rate of 90% or more (almost completely withered))
O: lambsquarters, herbicidal effect grade (lambsquarters [19]): 5 (Herbicidal rate of 90% or more (almost completely withered))

COc1ccc2sc(-c3ccc(Cl)cc3)c(-c3c(O)c(C)nn(C)c3=O)c2c1 [2-450]
Herbicidal effect, A: late watergrass (late watergrass [1]): 2 (Herbicidal rate of 20% or more and less than 40%)
Herbicidal effect, B: Japanese bulrush (Japanese bulrush [2]): 3 (Herbicidal rate of 40% or more and less than 70%)
Herbicidal effect, C: oval-leafed pondweed (oval-leafed pondweed [3]): 0 (Herbicidal rate of 5% or less (almost no effect))
herbicidal effect rating, A: late watergrass (late watergrass [4]): 3 (Herbicidal rate of 40% or more and less than 70%)
herbicidal effect rating, B: Japanese bulrush (Japanese bulrush [5]): 2 (Herbicidal rate of 20% or more and less than 40%)
herbicidal effect rating, C: oval-leafed pondweed (oval-leafed pondweed [6]): 0 (Herbicidal rate of 5% or less (almost no effect))
herbicidal effect on H: barnyard grass (barnyard grass [7]): 3 (Herbicidal rate of 40% or more and less than 70%)
herbicidal effect on D: Chinese sprangletop (Chinese sprangletop): 0 (Herbicidal rate of 5% or less (almost no effect))
herbicidal effect on E: rice flat sedge (rice flat sedge): 5 (Herbicidal rate of 90% or more (almost completely withered))
herbicidal effect, F: southern crabgrass (southern crabgrass [8]): 0 (Herbicidal rate of 5% or less (almost no effect))
herbicidal effect, G: green foxtail (green foxtail [9]): 0 (Herbicidal rate of 5% or less (almost no effect))
herbicidal effect, H: barnyard grass (barnyard grass [10]): 0 (Herbicidal rate of 5% or less (almost no effect))
herbicidal effect, M: velvetleaf (velvetleaf [11]): 0 (Herbicidal rate of 5% or less (almost no effect))
herbicidal effect, N: redroot pigweed (redroot pigweed [12]): 3 (Herbicidal rate of 40% or more and less than 70%)
herbicidal effect, O: lambsquarters (lambsquarters [13]): 2 (Herbicidal rate of 20% or more and less than 40%)
F: southern crabgrass, herbicidal effect grade (southern crabgrass [14]): 0 (Herbicidal rate of 5% or less (almost no effect))
G: green foxtail, herbicidal effect grade (green foxtail [15]): 0 (Herbicidal rate of 5% or less (almost no effect))
M: velvetleaf, herbicidal effect grade (velvetleaf [17]): 5 (Herbicidal rate of 90% or more (almost completely withered))
N: redroot pigweed, herbicidal effect grade (redroot pigweed [18]): 5 (Herbicidal rate of 90% or more (almost completely withered))
O: lambsquarters, herbicidal effect grade (lambsquarters [19]): 5 (Herbicidal rate of 90% or more (almost completely withered))

CCCC(=O)Oc1c(C)nn(C)c(=O)c1-c1c(-c2ccc(F)cc2OC)sc2cc(C)c(C)cc12 [5-102]
Herbicidal effect, A: late watergrass (late watergrass [1]): 4 (Herbicidal rate of 70% or more and less than 90%)
Herbicidal effect, B: Japanese bulrush (Japanese bulrush [2]): 3 (Herbicidal rate of 40% or more and less than 70%)
Herbicidal effect, C: oval-leafed pondweed (oval-leafed pondweed [3]): 2 (Herbicidal rate of 20% or more and less than 40%)
herbicidal effect rating, A: late watergrass (late watergrass [4]): 3 (Herbicidal rate of 40% or more and less than 70%)
herbicidal effect rating, B: Japanese bulrush (Japanese bulrush [5]): 3 (Herbicidal rate of 40% or more and less than 70%)
herbicidal effect rating, C: oval-leafed pondweed (oval-leafed pondweed [6]): 2 (Herbicidal rate of 20% or more and less than 40%)
herbicidal effect on barnyard grass (H) (barnyard grass [7]; 320 g/ha): 4 (Herbicidal rate of 70% or more and less than 90%)
herbicidal effect on Chinese sprangletop (D) (Chinese sprangletop; 320 g/ha): 4 (Herbicidal rate of 70% or more and less than 90%)
herbicidal effect on rice flat sedge (E) (rice flat sedge; 320 g/ha): 3 (Herbicidal rate of 40% or more and less than 70%)
herbicidal effect on southern crabgrass (F) (southern crabgrass [14]): 1 (Herbicidal rate of 5% or more and less than 20%)
herbicidal effect on green foxtail (G) (green foxtail [15]): 0 (Herbicidal rate of 5% or less (almost no effect))
herbicidal effect on barnyard grass (H) (barnyard grass [16]): 1 (Herbicidal rate of 5% or more and less than 20%)
herbicidal effect on wild oat (I) (wild oat): 0 (Herbicidal rate of 5% or less (almost no effect))
herbicidal effect on blackgrass (J) (blackgrass): 3 (Herbicidal rate of 40% or more and less than 70%)
herbicidal effect on Italian ryegrass (K) (Italian ryegrass): 3 (Herbicidal rate of 40% or more and less than 70%)
herbicidal effect on windgrass (L) (windgrass): 2 (Herbicidal rate of 20% or more and less than 40%)
herbicidal effect on velvetleaf (M) (velvetleaf [17]): 3 (Herbicidal rate of 40% or more and less than 70%)
herbicidal effect on lambsquarters (O) (lambsquarters [19]): 3 (Herbicidal rate of 40% or more and less than 70%)
herbicidal effect on persian speedwell (R) (persian speedwell): 3 (Herbicidal rate of 40% or more and less than 70%)
